Experimental data as given in patent US20230340012A1, “NATURAL AND SYNTHETIC COMPOUNDS FOR TREATING CANCER AND OTHER DISEASES” (PACIFIC ARROW LIMITED, priority 2009, published 2023).

These compounds were tested on cancer cells (assay: MTT cytotoxic assay of esterification products (Cytotoxicity activity)). Settings: MTT cytotoxic assay, isolated esterification products of E4A.
Assay type: cell-based, human
Source text: The peaks, fractions and compounds are selected according to the activities of times studies and the changes of peaks. Selecting the HPLC fractions for isolation is according to the cytotoxic activity of the reaction product obtained at a specific time. The compounds having strong to weak activities are selected and isolated. Selecting the HPLC fractions for isolation may be according to the cytotoxic activity of times studies and the change of peaks. The anti-cancer activities are the MTT studies of bone (U2OS), lung (H460), bladder (HTB-9), ovary (ES2), colon (HCT116), pancreas (Capan), ovary(OVCAR3), prostate (DU145), skin (SK-Mel-5), mouth (KB), kidney (A498), breast (MCF-7), liver (HepG2), brain (T98G), leukemia (K562), cervix (HeLa).
Esterification of compound (A), (B), (C), (D1), (D2), (E), (F), (G), (H1), (H2), E4A, E4A2Y, (P1), P(2), terpene, isoprene, triterpenes, hydroxylated triterpenes, with acyl halide, wherein the halide comprise chloride, bromide, fluoride and iodide, wherein the acyl halide comprise acyl chloride, wherein acyl chloride comprise tigloyl chloride, angeloyl chloride, acetyl chloride, crotonoyl chloride, 3,3-Dimethylacryloyl chloride, senecioyl chloride, cinnamoyl chloride, pentenoyl chloride, hexanoyl chloride, benzoyl chloride, ethylbutyryl chloride, propionyl chloride, 2-propenoyl chloride, isobutyryl chloride, butyryl chloride, (2E)-2-pentenoyl chloride, 4-Pentenoyl chloride, 5-hexenoyl chloride, heptanoyl chloride, octanoyl chloride, nonanoyl chloride, decanoyl chloride, Lauroyl chloride, myristoyl chloride, oleoyl chloride. The compounds vary in composition when the time or temperature of the reaction is changed. The peaks, fractions and compounds are selected according to the activities of times studies and the changes of peaks. The compounds having strong to weak activities are selected and isolated. The anti-cancer activities (Cytotoxic Assay) are the MTT studies of bone (U2OS), lung (H460), bladder(HTB-9), ovary (ES2), colon (HCT116), pancreas (Capan), ovary(OVCAR3), prostate (DU145), skin (SK-Mel-5), mouth (KB), kidney (A498), breast (MCF-7), liver (HepG2), brain (T98G), leukemia (K562), cervix (HeLa). The active esterification products are purified with HPLC. The reaction product of mixtures and individual compounds are tested with MTT Cytotoxic Assay. Details of method are in Experiment 3 of the present application. A second esterification of compound can be selected from the above experiment results to produce new active compounds. A partial esterification compound is selected from the above experiments to perform a second or repeated with a third esterification with different acyl chloride in order to produce new active compounds with the experiments in the present application.
Method: 40 mg of triterpene core (fraction IV) was dissolved in 1 ml pyridine in a 50 ml tube. Reaction is started by adding 0.2 ml of acyl chloride (Tigloyl chloride, angeloyl chloride, Acetyl chloride, Crotonoyl chloride, 3,3-Dimethylacryloyl chloride(senecioyl chloride), Cinnamoyl chloride, Pentenoyl chloride, Hexanoyl chloride, benzoyl chloride or Ethylbutyryl chloride). The mixture is stirred for 5 sec, 1 min, 2 min, 5 min, 10 min, 30 min, 1 hr, 2 hr, 18 hr, 2 days or 3 days at 0° C., 25° C. or 75° C. temperature. At the end of reaction, 5 ml of 2N HCl or 1 M NaHCO3 is added to the reaction mixture. The solution is then extracted 3 times with 10 ml of ethyl acetate which is then evaporated under vacuum and at 45C and lyophilization. The reaction product is dissolved in 80% acetonitrile - 0.005% Trifluoroacetic acid or DMSO; and was separated with HPLC. Selecting the HPLC fractions for isolation is according to the cytotoxic activity of the reaction product obtained at a specific reaction time. The active esterification products are purified with HPLC. The reaction product of mixtures and individual compounds are tested with MTT cytotoxic assay. Structures are determined with NMR. […]
In the case of `CC=C(C)C(=O)OCC1(C)C(O)CCC2(C)C1CCC1(C)C2CC=C2C3CC(C)(C)C(O)C(O)C3(CO)C(O)CC21C` (stereo not drawn) [Compound A1], the Cytotoxicity activity is reported as “moderate”.
With `CC=C(C)C(=O)OCC12C(O)CC3(C)C(=CCC4C5(C)CCC(O)C(C)(CO)C5CCC43C)C1CC(C)(C)C(O)C2O` (stereo not drawn) [Compound A2] the Cytotoxicity activity was “moderate”.
`CC=C(C)C(=O)OCC1(C)C(O)CCC2(C)C1CCC1(C)C2CC=C2C3CC(C)(C)C(O)C(O)C3(COC(=O)C(C)=CC)C(O)CC21C` (stereo not drawn) [Compound A3] was tested, and the Cytotoxicity activity was “strong”.
`CC=C(C)C(=O)OCC1(C)C(O)CCC2(C)C1CCC1(C)C2CC=C2C3CC(C)(C)C(OC(=O)C(C)=CC)C(O)C3(COC(=O)C(C)=CC)C(O)CC21C` (stereo not drawn) [Compound A4] was tested, and the Cytotoxicity activity was “moderate”.
For `CC=C(C)C(=O)OCC1(C)C(O)CCC2(C)C1CCC1(C)C2CC=C2C3CC(C)(C)C(O)C(OC(=O)C(C)=CC)C3(COC(=O)C(C)=CC)C(O)CC21C` (stereo not drawn) [Compound A5], the Cytotoxicity activity was “moderate”.
For `CC=C(C)C(=O)OCC1(C)C(OC(=O)C(C)=CC)CCC2(C)C1CCC1(C)C2CC=C2C3CC(C)(C)C(O)C(O)C3(COC(=O)C(C)=CC)C(O)CC21C` (stereo not drawn) [Compound A6], the Cytotoxicity activity was “moderate”.
`CC=C(C)C(=O)OCC1(C)C(O)CCC2(C)C1CCC1(C)C2CC=C2C3CC(C)(C)C(O)C(O)C3(COC(=O)C(C)=CC)C(OC(=O)C(C)=CC)CC21C` (stereo not drawn) [Compound A7] was tested, and the Cytotoxicity activity was “moderate”.
In the case of `CC=C(C)C(=O)OCC1(C)C(O)CCC2(C)C1CCC1(C)C2CC=C2C3CC(C)(C)C(OC(=O)C(C)=CC)C(OC(=O)C(C)=CC)C3(COC(=O)C(C)=CC)C(O)CC21C` (stereo not drawn) [Compound A8], the Cytotoxicity activity is reported as “weak”.
`CC=C(C)C(=O)OCC1(C)C(OC(=O)C(C)=CC)CCC2(C)C1CCC1(C)C2CC=C2C3CC(C)(C)C(O)C(OC(=O)C(C)=CC)C3(COC(=O)C(C)=CC)C(O)CC21C` (stereo not drawn) [Compound A9] was tested, and the Cytotoxicity activity was “weak”.
For `CC=C(C)C(=O)OCC1(C)C(OC(=O)C(C)=CC)CCC2(C)C1CCC1(C)C2CC=C2C3CC(C)(C)C(O)C(O)C3(COC(=O)C(C)=CC)C(OC(=O)C(C)=CC)CC21C` (stereo not drawn) [Compound A10], the Cytotoxicity activity was “weak”.
For `CC=C(C)C(=O)OCC1(C)C(OC(=O)C(C)=CC)CCC2(C)C1CCC1(C)C2CC=C2C3CC(C)(C)C(OC(=O)C(C)=CC)C(O)C3(COC(=O)C(C)=CC)C(O)CC21C` (stereo not drawn) [Compound A11], the Cytotoxicity activity was “weak”.
`CC=C(C)C(=O)OCC1(C)C(O)CCC2(C)C1CCC1(C)C2CC=C2C3CC(C)(C)C(O)C(OC(=O)C(C)=CC)C3(COC(=O)C(C)=CC)C(OC(=O)C(C)=CC)CC21C` (stereo not drawn) [Compound A12] was tested, and the Cytotoxicity activity was “weak”.
With `CC=C(C)C(=O)OCC1(C)C(O)CCC2(C)C1CCC1(C)C2CC=C2C3CC(C)(C)C(OC(=O)C(C)=CC)C(O)C3(COC(=O)C(C)=CC)C(OC(=O)C(C)=CC)CC21C` (stereo not drawn) [Compound A13] the Cytotoxicity activity was “weak”.
For `CC=C(C)C(=O)OCC1(C)C(OC(=O)C(C)=CC)CCC2(C)C1CCC1(C)C2CC=C2C3CC(C)(C)C(O)C(OC(=O)C(C)=CC)C3(COC(=O)C(C)=CC)C(O)CC21C` (stereo not drawn) [Compound A14], the Cytotoxicity activity was “weak”.
With `CC=C(C)C(=O)OCC1(C)C(OC(=O)C(C)=CC)CCC2(C)C1CCC1(C)C2CC=C2C3CC(C)(C)C(OC(=O)C(C)=CC)C(OC(=O)C(C)=CC)C3(COC(=O)C(C)=CC)C(O)CC21C` (stereo not drawn) [Compound A15] the Cytotoxicity activity was “weak”.
In the case of `CC=C(C)C(=O)OCC1(C)C(O)CCC2(C)C1CCC1(C)C2CC=C2C3CC(C)(C)C(OC(=O)C(C)=CC)C(OC(=O)C(C)=CC)C3(COC(=O)C(C)=CC)C(OC(=O)C(C)=CC)CC21C` (stereo not drawn) [Compound A16], the Cytotoxicity activity is reported as “weak”.
With `CC=C(C)C(=O)OCC1(C)C(OC(=O)C(C)=CC)CCC2(C)C1CCC1(C)C2CC=C2C3CC(C)(C)C(OC(=O)C(C)=CC)C(O)C3(COC(=O)C(C)=CC)C(OC(=O)C(C)=CC)CC21C` (stereo not drawn) [Compound A17] the Cytotoxicity activity was “weak”.
For `CC=C(C)C(=O)OCC1(C)C(OC(=O)C(C)=CC)CCC2(C)C1CCC1(C)C2CC=C2C3CC(C)(C)C(O)C(OC(=O)C(C)=CC)C3(COC(=O)C(C)=CC)C(OC(=O)C(C)=CC)CC21C` (stereo not drawn) [Compound A18], the Cytotoxicity activity was “weak”.
With `CC=C(C)C(=O)OCC1(C)C(OC(=O)C(C)=CC)CCC2(C)C1CCC1(C)C2CC=C2C3CC(C)(C)C(OC(=O)C(C)=CC)C(OC(=O)C(C)=CC)C3(COC(=O)C(C)=CC)C(OC(=O)C(C)=CC)CC21C` (stereo not drawn) [Compound A19] the Cytotoxicity activity was “none”.
For `CC=C(C)C(=O)OCC12C(O)CC3(C)C(=CCC4C5(C)CCC(O)C(C)(CO)C5CCC43C)C1CC(C)(C)C(OC(=O)C(C)=CC)C2OC(=O)C(C)=CC` (stereo not drawn) [Compound A20], the Cytotoxicity activity was “moderate”.
With `CC=C(C)C(=O)OCC1(C)C(O)CCC2(C)C1CCC1(C)C2CC=C2C3CC(C)(C)C(OC(=O)C(C)=CC)C(OC(=O)C(C)=CC)C3(CO)C(O)CC21C` (stereo not drawn) [Compound A21] the Cytotoxicity activity was “moderate”.
With `CC=C(C)C(=O)OC1C(OC(=O)C(C)=CC)C2(CO)C(OC(=O)C(C)=CC)CC3(C)C(=CCC4C5(C)CCC(O)C(C)(CO)C5CCC43C)C2CC1(C)C` (stereo not drawn) [Compound A22] the Cytotoxicity activity was “moderate”.
In the case of `CC=C(C)C(=O)OC1C(OC(=O)C(C)=CC)C2(CO)C(O)CC3(C)C(=CCC4C5(C)CCC(OC(=O)C(C)=CC)C(C)(CO)C5CCC43C)C2CC1(C)C` (stereo not drawn) [Compound A23], the Cytotoxicity activity is reported as “moderate”.
With `CC=C(C)C(=O)OC1C(OC(=O)C(C)=CC)C2(CO)C(O)CC3(C)C(=CCC4C5(C)CCC(O)C(C)(CO)C5CCC43C)C2CC1(C)C` (stereo not drawn) [Compound A24] the Cytotoxicity activity was “moderate”.
In the case of `CC=C(C)C(=O)OCC12C(O)CC3(C)C(=CCC4C5(C)CCC(O)C(C)(CO)C5CCC43C)C1CC(C)(C)C(OC(=O)C(C)=CC)C2O` (stereo not drawn) [Compound A25], the Cytotoxicity activity is reported as “moderate”.
With `CC=C(C)C(=O)OCC12C(O)CC3(C)C(=CCC4C5(C)CCC(O)C(C)(CO)C5CCC43C)C1CC(C)(C)C(O)C2OC(=O)C(C)=CC` (stereo not drawn) [Compound A26] the Cytotoxicity activity was “moderate”.
With `CC=C(C)C(=O)OCC12C(O)CC3(C)C(=CCC4C5(C)CCC(OC(=O)C(C)=CC)C(C)(CO)C5CCC43C)C1CC(C)(C)C(O)C2O` (stereo not drawn) [Compound A27] the Cytotoxicity activity was “moderate”.
`CC=C(C)C(=O)OCC12C(OC(=O)C(C)=CC)CC3(C)C(=CCC4C5(C)CCC(O)C(C)(CO)C5CCC43C)C1CC(C)(C)C(O)C2O` (stereo not drawn) [Compound A28] was tested, and the Cytotoxicity activity was “moderate”.
In the case of `CC=C(C)C(=O)OCC1(C)C(O)CCC2(C)C1CCC1(C)C2CC=C2C3CC(C)(C)C(OC(=O)C(C)=CC)C(O)C3(CO)C(O)CC21C` (stereo not drawn) [Compound A29], the Cytotoxicity activity is reported as “moderate”.
`CC=C(C)C(=O)OCC1(C)C(O)CCC2(C)C1CCC1(C)C2CC=C2C3CC(C)(C)C(O)C(OC(=O)C(C)=CC)C3(CO)C(O)CC21C` (stereo not drawn) [Compound A30] was tested, and the Cytotoxicity activity was “moderate”.
With `CC=C(C)C(=O)OCC1(C)C(OC(=O)C(C)=CC)CCC2(C)C1CCC1(C)C2CC=C2C3CC(C)(C)C(O)C(O)C3(CO)C(O)CC21C` (stereo not drawn) [Compound A31] the Cytotoxicity activity was “moderate”.
In the case of `CC=C(C)C(=O)OCC1(C)C(O)CCC2(C)C1CCC1(C)C2CC=C2C3CC(C)(C)C(O)C(O)C3(CO)C(OC(=O)C(C)=CC)CC21C` (stereo not drawn) [Compound A32], the Cytotoxicity activity is reported as “moderate”.
With `CC(C)=CC(=O)OCC1(C)C(O)CCC2(C)C1CCC1(C)C2CC=C2C3CC(C)(C)C(O)C(O)C3(CO)C(O)CC21C` (stereo not drawn) [Compound B1] the Cytotoxicity activity was “moderate”.
In the case of `CC(C)=CC(=O)OCC12C(O)CC3(C)C(=CCC4C5(C)CCC(O)C(C)(CO)C5CCC43C)C1CC(C)(C)C(O)C2O` (stereo not drawn) [Compound B2], the Cytotoxicity activity is reported as “moderate”.
`CC(C)=CC(=O)OCC1(C)C(O)CCC2(C)C1CCC1(C)C2CC=C2C3CC(C)(C)C(O)C(O)C3(COC(=O)C=C(C)C)C(O)CC21C` (stereo not drawn) [Compound B3] was tested, and the Cytotoxicity activity was “strong”.
`CC(C)=CC(=O)OCC1(C)C(O)CCC2(C)C1CCC1(C)C2CC=C2C3CC(C)(C)C(OC(=O)C=C(C)C)C(O)C3(COC(=O)C=C(C)C)C(O)CC21C` (stereo not drawn) [Compound B4] was tested, and the Cytotoxicity activity was “moderate”.
